Consider 18 molecules from patent US11993599B2, “Therapeutic compounds” (Genentech, Inc., priority 2021, dated 2024).

One test deals with T1, BRG1 (Homo sapiens, UniProt P51532).
T1 construct: either BRM primary antibody (Cell signaling Cat #11966) or BRG primary antibody (Abcam, ab 110641); endogenous in cells; host or cells: SW1573
The experiment in a line: Immunofluorescence assay for BRG1 degradation in SW1573 cells. The test is classed as cell-based. The settings on record: 20 hours incubation; for DC50: immunofluorescence mean nuclear signal, read-out: BRG1 IF Degradation IC50; for Dmax: SW1573, 20 h, normalized to a known degrader control, read-out: BRG1 IF Degradation Sinf (%). An outline of the steps: (§1)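 Degradation measured as loss of nuclear BRM or BRG1 staining in SW1573 cells after 20 h compound exposure. Signal per cell was imaged and normalized to a known degrader; curves with floating maximum yielded IC50 and Dmax.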

The target of a further test is BRM (Homo sapiens, UniProt P51531). The experiment in a line: Immunofluorescence assay for BRM degradation in SW1573 cells. The test is classed as cell-based. Also noted: treated overnight at 4° C. with either BRM primary antibody (Cell signaling Cat #11966) or BRG primary antibody; endogenous in cells; host or cells: SW1573. The settings on record: 20 hours incubation; for DC50: immunofluorescence mean nuclear signal, read-out: BRM IF Degradation IC50; for BRM IF Degradation Sinf (%): normalized to a known degrader control. In outline: as §1
Chain of BRM (P51531 whole entry): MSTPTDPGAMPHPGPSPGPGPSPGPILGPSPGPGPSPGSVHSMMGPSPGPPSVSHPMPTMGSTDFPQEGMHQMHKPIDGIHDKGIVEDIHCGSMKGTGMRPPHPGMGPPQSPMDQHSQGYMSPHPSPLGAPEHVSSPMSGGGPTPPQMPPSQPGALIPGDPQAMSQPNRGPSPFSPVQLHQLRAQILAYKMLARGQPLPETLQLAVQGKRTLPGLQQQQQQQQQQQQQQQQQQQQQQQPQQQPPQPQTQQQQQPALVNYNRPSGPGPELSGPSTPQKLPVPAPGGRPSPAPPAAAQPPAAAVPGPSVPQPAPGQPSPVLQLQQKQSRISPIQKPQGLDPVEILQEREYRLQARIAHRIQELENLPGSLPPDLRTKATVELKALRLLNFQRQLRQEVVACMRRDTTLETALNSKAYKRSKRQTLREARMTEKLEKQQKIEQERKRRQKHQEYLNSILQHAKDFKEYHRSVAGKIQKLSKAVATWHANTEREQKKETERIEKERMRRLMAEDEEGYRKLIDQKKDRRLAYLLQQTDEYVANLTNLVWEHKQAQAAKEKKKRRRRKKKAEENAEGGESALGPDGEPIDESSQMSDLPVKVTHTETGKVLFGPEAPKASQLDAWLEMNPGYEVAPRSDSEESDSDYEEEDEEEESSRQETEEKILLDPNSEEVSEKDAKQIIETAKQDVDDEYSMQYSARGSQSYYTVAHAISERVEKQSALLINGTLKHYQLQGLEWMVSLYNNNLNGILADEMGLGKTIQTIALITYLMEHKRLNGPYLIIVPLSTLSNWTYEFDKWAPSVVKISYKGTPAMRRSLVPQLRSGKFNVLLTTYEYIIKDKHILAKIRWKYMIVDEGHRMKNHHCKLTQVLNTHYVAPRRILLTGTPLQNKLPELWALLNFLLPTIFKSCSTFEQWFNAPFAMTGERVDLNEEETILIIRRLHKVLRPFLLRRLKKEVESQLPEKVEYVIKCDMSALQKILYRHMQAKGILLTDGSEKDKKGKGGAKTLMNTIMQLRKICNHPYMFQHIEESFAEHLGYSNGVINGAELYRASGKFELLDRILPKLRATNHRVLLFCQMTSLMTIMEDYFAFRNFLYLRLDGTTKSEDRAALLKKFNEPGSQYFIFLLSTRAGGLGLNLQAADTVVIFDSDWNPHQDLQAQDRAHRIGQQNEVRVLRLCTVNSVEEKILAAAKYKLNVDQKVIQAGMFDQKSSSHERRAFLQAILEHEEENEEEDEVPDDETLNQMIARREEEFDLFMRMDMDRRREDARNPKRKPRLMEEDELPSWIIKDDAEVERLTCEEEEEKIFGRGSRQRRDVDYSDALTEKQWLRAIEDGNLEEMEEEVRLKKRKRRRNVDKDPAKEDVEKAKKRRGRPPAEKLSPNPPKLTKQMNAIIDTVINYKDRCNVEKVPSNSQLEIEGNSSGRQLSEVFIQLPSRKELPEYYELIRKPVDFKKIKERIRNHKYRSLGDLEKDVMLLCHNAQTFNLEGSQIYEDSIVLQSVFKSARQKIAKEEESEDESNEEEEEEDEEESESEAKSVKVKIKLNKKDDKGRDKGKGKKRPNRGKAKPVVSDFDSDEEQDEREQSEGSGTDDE

T1 sequence (P51532 whole entry): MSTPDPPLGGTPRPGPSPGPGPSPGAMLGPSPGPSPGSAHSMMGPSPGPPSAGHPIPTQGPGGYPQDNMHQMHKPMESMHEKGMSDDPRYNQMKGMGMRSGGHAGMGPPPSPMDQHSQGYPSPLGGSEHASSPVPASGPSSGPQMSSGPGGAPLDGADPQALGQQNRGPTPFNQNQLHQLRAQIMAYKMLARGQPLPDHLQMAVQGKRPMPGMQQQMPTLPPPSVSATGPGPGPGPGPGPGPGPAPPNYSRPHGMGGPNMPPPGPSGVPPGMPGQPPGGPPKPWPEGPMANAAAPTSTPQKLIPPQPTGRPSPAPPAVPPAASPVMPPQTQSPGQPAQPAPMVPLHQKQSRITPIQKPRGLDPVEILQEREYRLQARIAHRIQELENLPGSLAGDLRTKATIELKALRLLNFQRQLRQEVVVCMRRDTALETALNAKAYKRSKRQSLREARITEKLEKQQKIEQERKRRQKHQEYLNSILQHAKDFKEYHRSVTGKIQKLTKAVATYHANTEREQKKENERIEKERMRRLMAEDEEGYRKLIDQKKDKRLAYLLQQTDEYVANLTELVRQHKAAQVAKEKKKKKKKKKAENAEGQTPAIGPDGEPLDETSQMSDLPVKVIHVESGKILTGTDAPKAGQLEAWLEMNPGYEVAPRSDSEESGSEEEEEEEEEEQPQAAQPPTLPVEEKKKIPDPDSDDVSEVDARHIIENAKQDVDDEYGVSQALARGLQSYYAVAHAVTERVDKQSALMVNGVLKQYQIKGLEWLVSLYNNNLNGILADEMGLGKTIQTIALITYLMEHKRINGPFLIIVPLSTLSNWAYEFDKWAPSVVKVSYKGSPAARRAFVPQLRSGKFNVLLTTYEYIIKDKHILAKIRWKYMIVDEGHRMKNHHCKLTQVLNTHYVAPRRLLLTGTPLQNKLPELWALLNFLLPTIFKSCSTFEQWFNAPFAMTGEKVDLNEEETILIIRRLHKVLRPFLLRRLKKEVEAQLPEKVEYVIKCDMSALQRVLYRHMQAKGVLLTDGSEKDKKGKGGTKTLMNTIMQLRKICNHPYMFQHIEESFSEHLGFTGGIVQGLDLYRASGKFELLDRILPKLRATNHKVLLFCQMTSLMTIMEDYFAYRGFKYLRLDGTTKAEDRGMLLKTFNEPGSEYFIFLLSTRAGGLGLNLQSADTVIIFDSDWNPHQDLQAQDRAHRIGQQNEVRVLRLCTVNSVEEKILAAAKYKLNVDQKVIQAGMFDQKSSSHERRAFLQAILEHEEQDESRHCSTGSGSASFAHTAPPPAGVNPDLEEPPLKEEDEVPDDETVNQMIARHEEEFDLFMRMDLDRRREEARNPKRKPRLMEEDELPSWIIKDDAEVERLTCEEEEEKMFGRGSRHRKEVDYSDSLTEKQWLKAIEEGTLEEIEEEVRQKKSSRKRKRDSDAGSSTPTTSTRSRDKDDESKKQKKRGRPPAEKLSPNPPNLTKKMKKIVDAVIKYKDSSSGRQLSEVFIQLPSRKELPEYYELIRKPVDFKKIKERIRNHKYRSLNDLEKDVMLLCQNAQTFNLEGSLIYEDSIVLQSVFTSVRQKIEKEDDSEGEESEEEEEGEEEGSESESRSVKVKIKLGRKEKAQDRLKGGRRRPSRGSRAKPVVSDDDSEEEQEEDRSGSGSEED

As to `Nc1nnc(-c2ccccc2O)cc1N1CC2CCC(C1)N2c1ccnc(C#CCN2CC3(CCCO3)C2)c1` [Compound 178, 2-[6-amino-5-[8-[2-[3-(5-oxa-2-azaspiro[3.4]octan-2-yl)prop-1-ynyl]-4-pyridyl]-3,8-diazabicyclo[3.2.1]octan-3-yl]pyridazin-3-yl]phenol], at BRG1, the DC50 was less than 10 nM and the Dmax was in the range of 30 to 70%. On BRM, the DC50 was in the range of 10 to 100 nM and the “BRM IF Degradation Sinf (%)” value is “F (F indicates −71%-−120%)”.
For `Nc1nnc(-c2ccccc2O)cc1N1CC2CCC(C1)N2c1ccnc(C#CCN2CC(CO)(c3ccccc3)C2)c1` [Compound 179, 2-[6-amino-5-[8-[2-[3-[3-(hydroxymethyl)-3-phenyl-azetidin-1-yl]prop-1-ynyl]-4-pyridyl]-3,8-diazabicyclo[3.2.1]octan-3-yl]pyridazin-3-yl]phenol], at BRG1, the DC50 lay in the range of 10 to 100 nM and the Dmax was in the range of 30 to 70%. Moreover, on BRM, the DC50 lay in the range of 10 to 100 nM and the “BRM IF Degradation Sinf (%)” value is listed as “F (F indicates −71%-−120%)”.
With `CC1CN(CC#Cc2cc(N3C4CCC3CN(c3cc(-c5ccccc5O)nnc3N)C4)ccn2)C1C` (stereo not shown) [Compound 180, 2-[6-amino-5-[8-[2-[3-(2,3-dimethylazetidin-1-yl)prop-1-ynyl]-4-pyridyl]-3,8-diazabicyclo[3.2.1]octan-3-yl]pyridazin-3-yl]phenol], at BRG1, the DC50 was less than 10 nM and the Dmax lay in the range of 30 to 70%. Besides, at BRM, the DC50 was less than 10 nM and the “BRM IF Degradation Sinf (%)” value is on record as “E (E indicates −30%-−70%)”.
On to `Nc1nnc(-c2ccccc2O)cc1N1CC2CCC(C1)N2c1ccnc(C#CCN2CCCCC(F)(F)C2)c1` [Compound 181, 2-[6-amino-5-[8-[2-[3-(3,3-difluoroazepan-1-yl)prop-1-ynyl]-4-pyridyl]-3,8-diazabicyclo[3.2.1]octan-3-yl]pyridazin-3-yl]phenol], for which, on BRG1, the DC50 lay within 10 to 100 nM and the Dmax is 30 to 70%. Moreover, on BRM, the DC50 fell in the range of 10 to 100 nM and the “BRM IF Degradation Sinf (%)” value is listed as “F (F indicates −71%-−120%)”.
On to `COC(=O)C1CCS(=O)(=O)C12CN(CC#Cc1cc(N3C4CCC3CN(c3cc(-c5ccccc5O)nnc3N)C4)ccn1)C2` (stereo not shown) [Compound 183, methyl 2-[3-[4-[3-[3-amino-6-(2-hydroxyphenyl)pyridazin-4-yl]-3,8-diazabicyclo[3.2.1]octan-8-yl]-2-pyridyl]prop-2-ynyl]-5,5-dioxo-51ambda6-thia-2-azaspiro[3.4]octane-8-carboxylate], for which the DC50 at BRG1 was greater than 100 nM. Besides, at BRM, the DC50 is greater than 100 nM and the “BRM IF Degradation Sinf (%)” value is listed as “E (E indicates −30%-−70%)”.
For the molecule `CC1CCN1CC#Cc1cc(N2C3CCC2CN(c2cc(-c4ccccc4O)nnc2N)C3)ccn1` (stereo not shown) [Compound 184, 2-[6-amino-5-[8-[2-[3-(2-methylazetidin-1-yl)prop-1-ynyl]-4-pyridyl]-3,8-diazabicyclo[3.2.1]octan-3-yl]pyridazin-3-yl]phenol], at BRG1, the DC50 is less than 10 nM and the Dmax is 30 to 70%. Further, on BRM, the DC50 was less than 10 nM and the “BRM IF Degradation Sinf (%)” value is “E (E indicates −30%-−70%)”.
Regarding `Nc1nnc(-c2ccccc2O)cc1N1CC2CCC(C1)N2c1ccnc(C#CCN2CC3(CC(O)C3)C2)c1` [Compound 185, 2-[3-[4-[3-[3-amino-6-(2-hydroxyphenyl)pyridazin-4-yl]-3,8-diazabicyclo[3.2.1]octan-8-yl]-2-pyridyl]prop-2-ynyl]-2-azaspiro[3.3]heptan-6-ol], on BRG1, the DC50 lay within 10 to 100 nM and the Dmax lay within 30 to 70%. Also, on BRM, the DC50 was greater than 100 nM and the “BRM IF Degradation Sinf (%)” value was “F (F indicates −71%-−120%)”.
As to `COC[C@@H]1CCN1CC#Cc1cc(N2C3CCC2CN(c2cc(-c4ccccc4O)nnc2N)C3)ccn1` [Compound 186, 2-[6-amino-5-[8-[2-[3-[(2S)-2-(methoxymethyl)azetidin-1-yl]prop-1-ynyl]-4-pyridyl]-3,8-diazabicyclo[3.2.1]octan-3-yl]pyridazin-3-yl]phenol], at BRG1, the DC50 was in the range of 10 to 100 nM and the Dmax was 30 to 70%. At BRM, the DC50 is less than 10 nM and the “BRM IF Degradation Sinf (%)” value was “E (E indicates −30%-−70%)”.
Take `CC1(C)CCN1CC#Cc1cc(N2C3CCC2CN(c2cc(-c4ccccc4O)nnc2N)C3)ccn1` [Compound 187, 2-[6-amino-5-[8-[2-[3-(2,2-dimethylazetidin-1-yl)prop-1-ynyl]-4-pyridyl]-3,8-diazabicyclo[3.2.1]octan-3-yl]pyridazin-3-yl]phenol]: on BRG1, the DC50 is less than 10 nM and the Dmax was 30 to 70%. Besides, on BRM, the DC50 was less than 10 nM and the “BRM IF Degradation Sinf (%)” value is recorded as “E (E indicates −30%-−70%)”.
Consider `CN1CCOC2(C1)CN(CC#Cc1cc(N3C4CCC3CN(c3cc(-c5ccccc5O)nnc3N)C4)ccn1)C2` [Compound 188, 2-[6-amino-5-[8-[2-[3-(8-methyl-5-oxa-2,8-diazaspiro[3.5]nonan-2-yl)prop-1-ynyl]-4-pyridyl]-3,8-diazabicyclo[3.2.1]octan-3-yl]pyridazin-3-yl]phenol], for which the DC50 on BRG1 is greater than 100 nM. Further, at BRM, the DC50 is greater than 100 nM and the “BRM IF Degradation Sinf (%)” value was “E (E indicates −30%-−70%)”.
Regarding `Nc1nnc(-c2ccccc2O)cc1N1CC2CCC(C1)N2c1ccnc(C#CCN2CCCC(F)(F)CC2)c1` [Compound 189, 2-[6-amino-5-[8-[2-[3-(4,4-difluoroazepan-1-yl)prop-1-ynyl]-4-pyridyl]-3,8-diazabicyclo[3.2.1]octan-3-yl]pyridazin-3-yl]phenol], at BRG1, the DC50 is less than 10 nM and the Dmax lay within 30 to 70%. At BRM, the DC50 is less than 10 nM and the “BRM IF Degradation Sinf (%)” value is on record as “F (F indicates −71%-−120%)”.
Take `CC1CCN(CC#Cc2cc(N3C4CCC3CN(c3cc(-c5ccccc5O)nnc3N)C4)ccn2)CCC1O` (stereo not shown) [Compound 190, 1-[3-[4-[3-[3-amino-6-(2-hydroxyphenyl)pyridazin-4-yl]-3,8-diazabicyclo[3.2.1]octan-8-yl]-2-pyridyl]prop-2-ynyl]-5-methyl-azepan-4-ol]: on BRG1, the DC50 was less than 10 nM and the Dmax was 30 to 70%. In addition, on BRM, the DC50 is less than 10 nM and the “BRM IF Degradation Sinf (%)” value is recorded as “F (F indicates −71%-−120%)”.
As to `Nc1nnc(-c2ccccc2O)cc1N1CC2CCC(C1)N2c1ccnc(C#CCN2CCCC(O)CC2)c1` (stereo not shown) [Compound 191, 1-[3-[4-[3-[3-amino-6-(2-hydroxyphenyl)pyridazin-4-yl]-3,8-diazabicyclo[3.2.1]octan-8-yl]-2-pyridyl]prop-2-ynyl]azepan-4-ol], at BRG1, the DC50 was less than 10 nM and the Dmax is 71 to 120%. Besides, on BRM, the DC50 was less than 10 nM and the “BRM IF Degradation Sinf (%)” value is “F (F indicates −71%-−120%)”.
Regarding `CC1CCCCN(CC#Cc2cc(N3C4CCC3CN(c3cc(-c5ccccc5O)nnc3N)C4)ccn2)C1` (stereo not shown) [Compound 192, 2-[6-amino-5-[8-[2-[3-(3-methylazepan-1-yl)prop-1-ynyl]-4-pyridyl]-3,8-diazabicyclo[3.2.1]octan-3-yl]pyridazin-3-yl]phenol], on BRG1, the DC50 was less than 10 nM and the Dmax was 71 to 120%. Further, at BRM, the DC50 was less than 10 nM and the “BRM IF Degradation Sinf (%)” value is given as “F (F indicates −71%-−120%)”.
Consider `Nc1nnc(-c2ccccc2O)cc1N1CC2CCC(C1)N2c1ccnc(C#CCN2CCCC(F)CC2)c1` (stereo not shown) [Compound 193, 2-[6-amino-5-[8-[2-[3-(4-fluoroazepan-1-yl)prop-1-ynyl]-4-pyridyl]-3,8-diazabicyclo[3.2.1]octan-3-yl]pyridazin-3-yl]phenol], for which, at BRG1, the DC50 is less than 10 nM and the Dmax lay in the range of 71 to 120%. At BRM, the DC50 was less than 10 nM and the “BRM IF Degradation Sinf (%)” value is given as “F (F indicates −71%-−120%)”.
Take `Nc1nnc(-c2ccccc2O)cc1N1CC2CCC(C1)N2c1ccnc(C#CCN2CCCCC(F)C2)c1` (stereo not shown) [Compound 194, 2-[6-amino-5-[8-[2-[3-(3-fluoroazepan-1-yl)prop-1-ynyl]-4-pyridyl]-3,8-diazabicyclo[3.2.1]octan-3-yl]pyridazin-3-yl]phenol]: at BRG1, the DC50 is less than 10 nM and the Dmax lay in the range of 30 to 70%. Further, at BRM, the DC50 was less than 10 nM and the “BRM IF Degradation Sinf (%)” value is given as “F (F indicates −71%-−120%)”.
In the case of `CC1CCCN(CC#Cc2cc(N3C4CCC3CN(c3cc(-c5ccccc5O)nnc3N)C4)ccn2)CC1C` (stereo not shown) [Compound 195, 2-[6-amino-5-[8-[2-[3-(3,4-dimethylazepan-1-yl)prop-1-ynyl]-4-pyridyl]-3,8-diazabicyclo[3.2.1]octan-3-yl]pyridazin-3-yl]phenol], at BRG1, the DC50 is less than 10 nM and the Dmax is 30 to 70%. Also, at BRM, the DC50 is less than 10 nM and the “BRM IF Degradation Sinf (%)” value is given as “F (F indicates −71%-−120%)”.
As for `CC1CN(CC#Cc2cc(N3C4CCC3CN(c3cc(-c5ccccc5O)nnc3N)C4)ccn2)CCCC1O` (stereo not shown) [Compound 196, 1-[3-[4-[3-[3-amino-6-(2-hydroxyphenyl)pyridazin-4-yl]-3,8-diazabicyclo[3.2.1]octan-8-yl]-2-pyridyl]prop-2-ynyl]-3-methyl-azepan-4-ol], at BRG1, the DC50 was less than 10 nM and the Dmax fell in the range of 71 to 120%. In addition, on BRM, the DC50 was less than 10 nM and the “BRM IF Degradation Sinf (%)” value was “F (F indicates −71%-−120%)”.
